Experimental data from the NIST ThermoML archive (doi:10.1021/je400529k).

Key:
[1] = refractive index (Na D-line) (dimensionless); xn = mol fraction of the nth substance listed; details: 101 kPa, Liquid, Standard Abbe refractometry
[2] = xn = mol fraction of the nth substance listed; details: 101 kPa, Liquid; for viscosity: Capillary tube (Ostwald / Ubbelohde) method; for mass density: Vibrating tube method

C1C[C@@H]2[C@H]3CC[C@H](C3)[C@@H]2C1 [exo-tetrahydrodicyclopentadiene] + CC1CCCCC1
Details	mass density, [2] [kg/m3]	refractive index, [1]	viscosity, [2] [mPa·s]
293.15 K, x1 = 0.1	788.79	1.4298	0.842
293.15 K, x1 = 0.2009	807.71	1.4376	0.959
293.15 K, x1 = 0.301	825.81	1.4447	1.102
293.15 K, x1 = 0.3999	843.02	1.4515	1.267
293.15 K, x1 = 0.4999	859.94	1.4586	1.454
293.15 K, x1 = 0.5992	876.09	1.4646	1.67
293.15 K, x1 = 0.7004	891.98	1.4709	1.925
293.15 K, x1 = 0.7995	906.95	1.4768	2.22
293.15 K, x1 = 0.9011	921.82	1.482	2.582
293.15 K, x1 = 1	935.72	1.4874	2.992
298.15 K, x1 = 0.1	784.53	–	0.785
298.15 K, x1 = 0.2009	803.5	–	0.892
298.15 K, x1 = 0.301	821.64	–	1.023
298.15 K, x1 = 0.3999	838.89	–	1.171
298.15 K, x1 = 0.4999	855.86	–	1.34
298.15 K, x1 = 0.5992	872.05	–	1.534
298.15 K, x1 = 0.7004	887.96	–	1.762
298.15 K, x1 = 0.7995	902.99	–	2.026
298.15 K, x1 = 0.9011	917.88	–	2.347
298.15 K, x1 = 1	931.84	–	2.71
303.15 K, x1 = 0.1	780.25	1.4253	0.735
303.15 K, x1 = 0.2009	799.26	1.4324	0.833
303.15 K, x1 = 0.301	817.46	1.4402	0.952
303.15 K, x1 = 0.3999	834.75	1.4472	1.087
303.15 K, x1 = 0.4999	851.75	1.4539	1.239
303.15 K, x1 = 0.5992	867.99	1.4599	1.416
303.15 K, x1 = 0.7004	883.94	1.4662	1.621
303.15 K, x1 = 0.7995	899.01	1.4722	1.857
303.15 K, x1 = 0.9011	913.94	1.478	2.146
303.15 K, x1 = 1	927.94	1.4831	2.467
308.15 K, x1 = 0.1	775.95	–	0.692
308.15 K, x1 = 0.2009	795.01	–	0.781
308.15 K, x1 = 0.301	813.26	–	0.89
308.15 K, x1 = 0.3999	830.6	–	1.013
308.15 K, x1 = 0.4999	847.64	–	1.151
308.15 K, x1 = 0.5992	863.93	–	1.312
308.15 K, x1 = 0.7004	879.91	–	1.497
308.15 K, x1 = 0.7995	895.01	–	1.709
308.15 K, x1 = 0.9011	910	–	1.967
308.15 K, x1 = 1	924.02	–	2.255
313.15 K, x1 = 0.1	771.64	1.4198	0.652
313.15 K, x1 = 0.2009	790.75	1.4276	0.733
313.15 K, x1 = 0.301	809.05	1.4351	0.834
313.15 K, x1 = 0.3999	826.43	1.4421	0.947
313.15 K, x1 = 0.4999	843.53	1.449	1.074
313.15 K, x1 = 0.5992	859.84	1.4549	1.218
313.15 K, x1 = 0.7004	875.88	1.4617	1.388
313.15 K, x1 = 0.7995	891.03	1.4672	1.579
313.15 K, x1 = 0.9011	906.04	1.4732	1.81
313.15 K, x1 = 1	920.11	1.4786	2.069
318.15 K, x1 = 0.1	767.31	–	0.616
318.15 K, x1 = 0.2009	786.48	–	0.691
318.15 K, x1 = 0.301	804.83	–	0.783
318.15 K, x1 = 0.3999	822.26	–	0.887
318.15 K, x1 = 0.4999	839.4	–	1.003
318.15 K, x1 = 0.5992	855.75	–	1.135
318.15 K, x1 = 0.7004	871.84	–	1.29
318.15 K, x1 = 0.7995	887.03	–	1.463
318.15 K, x1 = 0.9011	902.08	–	1.672
318.15 K, x1 = 1	916.18	–	1.907
